Data from article PMC6886523 (Nature chemical biology, 2017).
Converted amounts (≈) assume the structure as drawn.

Key:
[1] = test system: Mtb; assay: microbe, parasite or virus in culture; format: cell-based
[2] = test system: Mtb; format: cell-based, Mycobacterium tuberculosis
[3] = test system: panel of Gram-negative and Gram-positive bacterial species; format: cell-based
[4] = target: T1, Mtb TrpAB (Mycobacterium tuberculosis, UniProt P9WFX9+P9WFY1); format: biochemical
[5] = target: T1, Mtb TrpAB; format: biochemical; remark: listed apart in the source
[6] = target: T1, Mtb TrpAB; format: binding
[7] = target: TrpAB (Mycobacterium tuberculosis, UniProt P9WFX9+P9WFY1); format: biochemical
TrpAB, sequence (P9WFX9 12-421): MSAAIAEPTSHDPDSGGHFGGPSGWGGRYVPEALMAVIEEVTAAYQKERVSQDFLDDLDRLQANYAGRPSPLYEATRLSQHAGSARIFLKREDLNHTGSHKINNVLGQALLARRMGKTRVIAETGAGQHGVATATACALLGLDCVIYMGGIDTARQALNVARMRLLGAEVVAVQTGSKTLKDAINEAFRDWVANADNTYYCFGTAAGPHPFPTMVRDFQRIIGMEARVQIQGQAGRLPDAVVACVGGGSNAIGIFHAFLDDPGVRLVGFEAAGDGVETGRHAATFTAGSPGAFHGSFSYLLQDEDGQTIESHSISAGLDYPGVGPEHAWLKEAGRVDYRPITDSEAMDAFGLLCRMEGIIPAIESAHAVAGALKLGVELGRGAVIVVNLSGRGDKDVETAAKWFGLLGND
TrpAB, sequence (P9WFY1 whole entry): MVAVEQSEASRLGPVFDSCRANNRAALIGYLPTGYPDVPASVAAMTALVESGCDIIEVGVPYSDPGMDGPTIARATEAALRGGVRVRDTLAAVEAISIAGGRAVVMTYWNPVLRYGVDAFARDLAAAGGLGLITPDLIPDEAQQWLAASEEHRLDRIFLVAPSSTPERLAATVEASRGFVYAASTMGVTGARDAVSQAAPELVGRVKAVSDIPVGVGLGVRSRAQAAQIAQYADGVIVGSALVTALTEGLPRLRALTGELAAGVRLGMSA

[8] = test system: Mtb in J774 macrophages; format: cell-based; settings: day 3 CFU/day 0 CFU
[9] = test system: M. marinum; assay: Zebrafish embryo infection, wild-type M. marinum; format: in vivo, Danio rerio (zebrafish); settings: after 5 d of treatment
[10] = target: T1, Mtb TrpAB
[11] = ref PubChem compound ID 54650477; cited from earlier work
[12] = in vitro; settings: mouse, microsomes
[13] = in vitro; settings: mouse, hepatocytes
[14] = test system: GAPDH; assay: GAPDH counter-check in coupled fluorescence assay; settings: fluorescence assay conditions

T1 sequence (P9WFY1 whole entry): as above
T1 sequence (P9WFX9 12-421): as the sequence (P9WFX9 12-421) above

N#C[C@@H]1N[C@@H](CO)[C@H]1c1ccc(-c2ccccc2F)cc1 [BRD4592, (2R,3S,4R)-3-(2′-fluoro-[1,1′-biphenyl]-4-yl)-4-(hydroxymethyl)azetidine-2-carbonitrile]
effect of L-Trp addition to growth medium on lethal effects ([1]; 1 mM L-Trp supplementation): rescued | MIC90 ([1]; Mycobacterium tuberculosis, read-out: MIC90 (minimal concentration needed to inhibit 90% of bacterial growth)): 3 µM (≈ 0.847 µg/mL) | activity among the stereoisomers of the azetidine ([1]; three stereogenic centers, eight stereoisomeric forms): only the BRD4592 stereoisomer was active | reduction of colony-forming units (CFUs) of Mtb cultures [2]: 2–3 logs | spectrum of activity against bacterial species [3]: active against several mycobacterial species but not other bacteria tested | initial inhibition of the α-reaction [4]: more than 200 fold | kcat^α under saturating compound [4]: 0.0013 ± 0.00017 s⁻¹ | mode of inhibition versus IGP [4]: uncompetitive | mode of inhibition versus L-Ser [4]: mixed-type inhibitor | α value (mixed-type inhibition) [4]: 0.81 ± 0.06 | α values (mixed model) [4]: < 0.00001 | initial inhibition of the β-reaction [5]: more than 200 fold | kcat^β under saturating compound [5]: 0.00433 ± 0.00017 s⁻¹ | mode of inhibition with respect to indole [5]: uncompetitive | rate of L-Trp production slower than uninhibited enzyme [5]: 750 times | increase in affinity of TrpAB for L-Trp [6]: 4.5 fold | reversibility of inhibition [7]: reversible inhibitor | restriction of Mtb growth in macrophages compared to DMSO [8]: eight-fold | restriction of M. marinum growth in zebrafish embryos compared to DMSO [9]: ~ 1.5 logs | Tm of TrpAB with compound [10]: 81.6 ± 0.2 °C | increase of Tm of TrpAB in active β^C conformation [10]: 8 °C | stabilization of the open conformation [10]: did not stabilize | activity in 36 screens reported in PubChem [11]: no activity | microsomal CLint at 1 μM [12]: 336 µL/min/mg | hepatocyte CLint at 1 μM [13]: 47.2 µL/min/1e6 cells | inhibition of GAPDH activity [14]: not found to inhibit
